From ChEMBL document CHEMBL1201861, “Genomics of Drug Sensitity in Cancer screening data, Wellcome Trust Sanger Institute”
pIC50: −log10 of the molar value.

Assays:
SNG-M = test: cells; type: functional, cell-based; conditions: Homo sapiens
Description: SANGER: Inhibition of human SNG-M cell growth in a cell viability assay.

HCC1599 = test: cells; type: functional, cell-based; conditions: Homo sapiens;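 further: growth inhibition of HCC1599 cells, read out in a cell viability assay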
Description: SANGER: Inhibition of human HCC1599 cell growth in a cell viability assay.

Calu-1 = test: SANGER: Inhibition of human Calu-1 cell growth in a cell viability assay.; type: functional, cell-based
MES-SA = test: cells; type: functional, cell-based, Homo sapiens; conditions: Homo sapiens, MES-SA;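 further: growth inhibition of human MES-SA cells, read out with a cell viability assay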
Description: SANGER: Inhibition of human MES-SA cell growth in a cell viability assay.

HuO9 = test: cells; type: functional, cell-based, Homo sapiens; conditions: Homo sapiens, HuO9;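 further: growth inhibition of HuO9 cells, read out with a cell viability assay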
Description: SANGER: Inhibition of human HuO9 cell growth in a cell viability assay.

DV-90 = test: cells; type: functional, cell-based; conditions: Homo sapiens;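 further: Read-out is a viability assay, with IC50 reflecting the drop in DV-90 cell growth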
Description: SANGER: Inhibition of human DV-90 cell growth in a cell viability assay.

THP-1 = test: cells; type: functional, cell-based; conditions: Homo sapiens;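 further: growth inhibition of THP-1 cells, read out via a cell viability assay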
Description: SANGER: Inhibition of human THP-1 cell growth in a cell viability assay.

DG-75 = test: cells; type: functional, cell-based; conditions: Homo sapiens;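 further: growth inhibition of DG-75 cells, read out with a cell viability assay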
Description: SANGER: Inhibition of human DG-75 cell growth in a cell viability assay.

MFE-296 = test: SANGER: Inhibition of human MFE-296 cell growth in a cell viability assay.; type: functional, cell-based
TT = test: cells; type: functional, cell-based; conditions: Homo sapiens
Description: SANGER: Inhibition of human TT cell growth in a cell viability assay.

IPC-298 = test: SANGER: Inhibition of human IPC-298 cell growth in a cell viability assay.; type: functional, cell-based
SU-DHL-1 = test: SANGER: Inhibition of human SU-DHL-1 cell growth in a cell viability assay.; type: functional, cell-based
COR-L279 = test: SANGER: Inhibition of human COR-L279 cell growth in a cell viability assay.; type: functional, cell-based
NCI-H1734 = test: cells; type: functional, cell-based; conditions: Homo sapiens;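 further: growth inhibition of human NCI-H1734 cells, read out with a cell viability assay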
Description: SANGER: Inhibition of human NCI-H1734 cell growth in a cell viability assay.

HCC1143 = test: cells; type: functional, cell-based; conditions: Homo sapiens;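 further: growth inhibition of human HCC1143 cells, read out with a cell viability assay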
Description: SANGER: Inhibition of human HCC1143 cell growth in a cell viability assay.

EHEB = test: cells; type: functional, cell-based; conditions: Homo sapiens;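 further: growth inhibition of human EHEB cells, read out with a cell viability assay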
Description: SANGER: Inhibition of human EHEB cell growth in a cell viability assay.

CCF-STTG1 = test: cells; type: functional, cell-based; conditions: Homo sapiens;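 further: growth inhibition of human CCF-STTG1 cells, determined with a cell viability read-out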
Description: SANGER: Inhibition of human CCF-STTG1 cell growth in a cell viability assay.

SK-CO-1 = test: cells; type: functional, cell-based; conditions: Homo sapiens;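 further: growth inhibition of SK-CO-1 cells, determined by a viability readout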
Description: SANGER: Inhibition of human SK-CO-1 cell growth in a cell viability assay.

NCI-H187 = test: cells; type: functional, cell-based; conditions: Homo sapiens;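 further: growth inhibition of NCI-H187 cells, read out as cell viability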
Description: SANGER: Inhibition of human NCI-H187 cell growth in a cell viability assay.

CPC-N = test: cells; type: functional, cell-based; conditions: Homo sapiens;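 further: growth inhibition of CPC-N cells, with a cell viability assay as the readout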
Description: SANGER: Inhibition of human CPC-N cell growth in a cell viability assay.

MDA-MB-134-VI = test: cells; type: functional, cell-based; conditions: Homo sapiens
Description: SANGER: Inhibition of human MDA-MB-134-VI cell growth in a cell viability assay.

LU-165 = test: cells; type: functional, cell-based; conditions: Homo sapiens
Description: SANGER: Inhibition of human LU-165 cell growth in a cell viability assay.

EFE-184 = test: cells; type: functional, cell-based; conditions: Homo sapiens
Description: SANGER: Inhibition of human EFE-184 cell growth in a cell viability assay.

OPM-2 = test: cells; type: functional, cell-based; conditions: Homo sapiens;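 further: growth of OPM-2 cells measured with a viability assay, IC50 for suppression of proliferation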
Description: SANGER: Inhibition of human OPM-2 cell growth in a cell viability assay.

SNU-475 = test: cells; type: functional, cell-based; conditions: Homo sapiens
Description: SANGER: Inhibition of human SNU-475 cell growth in a cell viability assay.

TUR = test: cells; type: functional, cell-based; conditions: Homo sapiens;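 further: growth inhibition of human TUR cells, read out with a cell viability assay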
Description: SANGER: Inhibition of human TUR cell growth in a cell viability assay.

JIYOYE = test: cells; type: functional, cell-based; conditions: Homo sapiens
Description: SANGER: Inhibition of human JiyoyeP-2003 cell growth in a cell viability assay.

C-4-II = test: SANGER: Inhibition of human C-4-II cell growth in a cell viability assay.; type: functional, cell-based
LOUCY = test: cells; type: functional, cell-based; conditions: Homo sapiens;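 further: growth inhibition of human LOUCY cells, read out with a cell viability assay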
Description: SANGER: Inhibition of human LOUCY cell growth in a cell viability assay.

NCI-H1618 = test: cells; type: functional, cell-based; conditions: Homo sapiens;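 further: growth inhibition of human NCI-H1618 cells, measured by a cell viability assay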
Description: SANGER: Inhibition of human NCI-H1618 cell growth in a cell viability assay.

MDA-MB-468 = test: cells; type: functional, cell-based; conditions: Homo sapiens
Description: SANGER: Inhibition of human MDA-MB-468 cell growth in a cell viability assay.

NCI-H716 = test: cells; type: functional, cell-based; conditions: Homo sapiens;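 further: growth inhibition of human NCI-H716 cells, measured by a cell viability assay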
Description: SANGER: Inhibition of human NCI-H716 cell growth in a cell viability assay.

NCI-H322M = test: cells; type: functional, cell-based; conditions: Homo sapiens;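 further: cell viability assay measuring inhibition of growth of human NCI-H322M cells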
Description: SANGER: Inhibition of human NCI-H322M cell growth in a cell viability assay.

YT = test: cells; type: functional, cell-based; conditions: Homo sapiens
Description: SANGER: Inhibition of human YT cell growth in a cell viability assay.

MEL-JUSO = test: cells; type: functional, cell-based, Homo sapiens; conditions: Homo sapiens, MEL-JUSO;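 further: growth inhibition of human MEL-JUSO cells, read out with a cell viability assay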
Description: SANGER: Inhibition of human MEL-JUSO cell growth in a cell viability assay.

RT-4 = test: SANGER: Inhibition of human RT4 cell growth in a cell viability assay.; type: functional, cell-based; conditions: Homo sapiens, RT-4
23132-87 = test: cells; type: functional, cell-based, Homo sapiens; conditions: Homo sapiens
Description: SANGER: Inhibition of human 23132-87 cell growth in a cell viability assay.

EW-7 = test: SANGER: Inhibition of human EW-7 cell growth in a cell viability assay.; type: functional, cell-based; conditions: Homo sapiens, EW-7
HCT-15 = test: cells; type: functional, cell-based, Homo sapiens; conditions: Homo sapiens, HCT-15;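 further: cell viability readout, IC50 reflecting suppression of HCT-15 cell growth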
Description: SANGER: Inhibition of human HCT-15 cell growth in a cell viability assay.

NCI-H2227 = test: cells; type: functional, cell-based; conditions: Homo sapiens;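 further: growth inhibition of the human cell line, read out with a cell viability assay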
Description: SANGER: Inhibition of human NCI-H2227 cell growth in a cell viability assay.

ECC12 = test: cells; type: functional, cell-based; conditions: Homo sapiens
Description: SANGER: Inhibition of human ECC12 cell growth in a cell viability assay.

GDM-1 = test: cells; type: functional, cell-based; conditions: Homo sapiens;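 further: cell viability readout used to measure growth inhibition of human GDM-1 cells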
Description: SANGER: Inhibition of human GDM-1 cell growth in a cell viability assay.

IM-9 = test: SANGER: Inhibition of human IM-9 cell growth in a cell viability assay.; type: functional, cell-based
DMS-53 = test: cells; type: functional, cell-based, Homo sapiens; conditions: Homo sapiens, DMS-53;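 further: cell viability assay measuring growth inhibition of human DMS-53 cells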
Description: SANGER: Inhibition of human DMS-53 cell growth in a cell viability assay.

Measured: pIC50

Cc1cnc(-c2cnc(NCCNc3ccc(C#N)cn3)nc2-c2ccc(Cl)cc2Cl)[nH]1 [LADUVIGLUSIB]
< 5.59: all assays above
